In US20250188110A1, “SPECIFIC SMALL MOLECULE INHIBITORS THAT BLOCK KMT9 METHYLTRANSFERASE ACTIVITY AND FUNCTION” (ALBERT-LUDWIGS-UNIVERSITÄT FREIBURG, priority 2021, published 2025):

Legend:
KMT9 [1] = target: T1, KMT9 (Homo sapiens, UniProt Q9Y5N5); test: KMT9 thermal shift assay (SyproOrange); assay type: binding; settings: ΔTm; 500 µM compound, 2 μM KMT9, 5X SO; read-out: Thermal shift
T1 sequence (Q9Y5N5 1-214): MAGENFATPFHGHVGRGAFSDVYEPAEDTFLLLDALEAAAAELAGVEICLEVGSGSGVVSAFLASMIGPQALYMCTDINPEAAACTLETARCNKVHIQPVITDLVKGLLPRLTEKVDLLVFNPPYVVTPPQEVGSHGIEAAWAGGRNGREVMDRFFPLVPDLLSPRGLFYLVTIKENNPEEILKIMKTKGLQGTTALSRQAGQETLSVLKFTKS
T1 sequence (Q9UI30 1-120 isoform Q9UI30-2 partner): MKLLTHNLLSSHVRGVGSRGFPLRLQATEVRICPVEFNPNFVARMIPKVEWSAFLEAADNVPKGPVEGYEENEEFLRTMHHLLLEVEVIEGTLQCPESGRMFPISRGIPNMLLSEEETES
How it was run: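 Recombinant KMT9 was incubated with compound and SyproOrange at 25° C in 50 mM BTP pH 8.5, 1 mM MgCl2, 1 mM DTT. It was then heated from 20° C to 95° C at 1° C per 15 s with fluorescence read each step. Tm came from a Boltzmann sigmoidal fit; ΔTm relative to DMSO control, binned in 5 K ranges.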

KMT9 [2] = target: T1, KMT9; test: Microscale thermophoresis (MST) KMT9 binding; settings: microscale thermophoresis, His-tag labelled KMT9 (20 nM); read-out: MST
How it was run: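 His-tagged KMT9 (20 nM), RED-Tris-NTA labelled, titrated with varying compound concentrations in 25 mM HEPES pH 7.5, 100 mM NaCl, 1 mM DTT, 0.05% Tween. MST at 40% MST and 100% LED power, Nano-RED excitation; Kd binned A ≤10 nM, B 10–100, C 100–1000, D >1000 nM.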

KMT9 [3] = target: T1, KMT9; test: KMT9 methyltransferase inhibition assay, 3H-SAM scintillation (entries 1-154); assay type: biochemical; settings: entries 1-154: 3H-SAM assay, 25 nM KMT9, 5 μM ETF1
How it was run: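 Final 25 nM KMT9, 5 μM ETF1 (residues 140-275), 0.3 μM 3H-SAM plus 0.7 μM SAM in pH 8.5 BTP buffer, 2 h at 30° C. TCA-quenched, filter-washed, methylation counted by scintillation; % inhibition vs DMSO and no-enzyme controls, IC50 from four-parameter fit.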

Row | SMILES | ΔTm at 500 µM (KMT9 [1]) [°C] | Kd (KMT9 [2]) [nM] | IC50 (KMT9 [3]) [nM]
1 | CNc1ncnc2c1ccn2[C@@H]1C[C@H](C(=O)NCC2CCCCN2)[C@@H](O)[C@H]1O (stereo partly drawn) [350 (254), (1S,2R,3S,4R)-2,3-dihydroxy-4-(4-(methylamino)-7H-pyrrolo[2,3-d]pyrimidin-7-yl)-N-(piperidin-2-ylmethyl) cyclopentane-1-carboxamide] | ≤ 10 | > 1000 | > 10000
2 | CNc1ncnc2c1ccn2[C@@H]1C[C@H](C(=O)N(C)CCCNCCc2cccc(Oc3ccccc3)c2)[C@@H](O)[C@H]1O [351 (255), (1S,2R,3S,4R)-2,3-dihydroxy-N-methyl-4-(4-(methylamino)-7H-pyrrolo[2,3-a]pyrimidin-7-yl)-N-(3-((3-phenoxyphenethyl)amino)propyl) cyclopentane-1-carboxamide] | 10 to 15 | 10 to 100 | 1000 to 10000
3 | CNc1ncnc2c1ccn2[C@@H]1C[C@H](C(=O)NCCCNCc2ccc(Oc3ccc(Cl)cc3)c(F)c2)[C@@H](O)[C@H]1O [352 (256), (1S,2R,3S,4R)—N-(3-((4-(4-chlorophenoxy)-3-fluorobenzyl)amino)propyl)-2,3-dihydroxy-4-(4-(methylamino)-7H-pyrrolo[2.3-d]pyrimidin-7-yl)cyclopentane-1-carboxamide] | 10 to 15 | 100 to 1000 | > 10000
4 | CNc1ncnc2c1ccn2[C@@H]1C[C@H](C(=O)NCCCNCc2cccc(Oc3ccccc3)c2)[C@@H](O)[C@H]1O [353 (257), (1S,2R,3S,4R)-2,3-dihydroxy-4-(4-(methylamino)-7H-pyrrolo[2,3-d]pyrimidin-7-yl)-N-(3-((3-phenoxybenzyl)amino)propyl) cyclopentane-1-carboxamide] | 10 to 15 | 100 to 1000 | 1000 to 10000
5 | CNc1ncnc2c1ccn2[C@@H]1C[C@H](C(=O)NCCCNCCc2cccc(Oc3ccccc3)c2)[C@@H](O)[C@H]1O [354 (258), (1S,2R,3S,4R)-2,3-dihydroxy-4-(4-(methylamino)-7H-pyrrolo[2,3-d]pyrimidin-7-yl)-N-(3-((3-phenoxyphenethyl)amino)propyl) cyclopentane-1-carboxamide] | 15 to 20 | 10 to 100 | 1000 to 10000
6 | CNc1ncnc2c1ccn2[C@@H]1C[C@H](C(=O)NCCCNCCc2ccc(Oc3ccc(Cl)cc3)c(F)c2)[C@@H](O)[C@H]1O [355 (259), (1S,2R,3S,4R)—N-(3-((4-(4-chlorophenoxy)-3-fluorophenethyl)amino)propyl)-2,3-dihydroxy-4-(4-(methylamino)-7H-pyrrolo[2,3-a]pyrimidin-7-yl) cyclopentane-1-carboxamide] | 10 to 15 | 100 to 1000 | 100 to 1000
7 | CNc1ncnc2c1ccn2[C@@H]1C[C@H](C(=O)NCCNCCc2cccc(Oc3ccccc3)c2)[C@@H](O)[C@H]1O [356 (260), (1S,2R,3S,4R)-2,3-dihydroxy-4-(4-(methylamino)-7H-pyrrolo[2,3-d]pyrimidin-7-yl)-N-(2-((3-phenoxyphenethyl)amino)ethyl) cyclopentane-1-carboxamide] | 10 to 15 | 100 to 1000 | > 10000
8 | CNc1ncnc2c1ccn2[C@@H]1C[C@H](CNCC(F)(F)CNCCc2ccc3ccccc3c2)[C@@H](O)[C@H]1O [357 (261), (1S,2R,3R,5R)-3-(((2,2-difluoro-3-((2-(naphthalen-2-yl)ethyl)amino)propyl)amino)methyl)-5-(4-(methylamino)-7H-pyrrolo[2,3-a]pyrimidin-7-yl) cyclopentane-1,2-diol] | ≤ 10 | > 1000 | > 10000
9 | CNc1ncnc2c1ccn2[C@@H]1C[C@H](CN2CC(CNCCc3ccc4ccccc4c3)C2)[C@@H](O)[C@H]1O [360 (264), (1R,2S,3R,5R)-3-(4-(methylamino)-7H-pyrrolo[2,3-d]pyrimidin-7-yl)-5-((3-(((2-(naphthalen-2-yl)ethyl)amino)methyl)azetidin-1-yl)methyl) cyclopentane-1,2-diol] | ≤ 10 | > 1000 | > 10000
10 | CNc1ncnc2c1ccn2[C@@H]1C[C@H](CN(CCCNCCc2cccc(Oc3ccccc3)c2)CC2CC2)[C@@H](O)[C@H]1O [360 (270)] | ≤ 10 | 100 to 1000 | > 10000
11 | CNc1ncnc2c1ccn2[C@@H]1C[C@H](CN(CCCNCCc2cccc(Oc3ccccc3)c2)C(C)C)[C@@H](O)[C@H]1O [362 (266), (1S,2R,3R,5R)-3-((isopropyl(3-((3-phenoxyphenethyl)amino)propyl)amino)methyl)-5-(4-(methylamino)-7H-pyrrolo[2,3-d]pyrimidin-7-yl) cyclopentane-1,2-diol] | 10 to 15 | 100 to 1000 | 1000 to 10000
12 | CCN(CCCNCCc1cccc(Oc2ccccc2)c1)C[C@H]1C[C@@H](n2ccc3c(NC)ncnc32)[C@H](O)[C@@H]1O [364 (268), (1S,2R,3R,5R)-3-((ethyl(3-((3-phenoxyphenethyl)amino)propyl)amino)methyl)-5-(4-(methylamino)-7H-pyrrolo[2,3-d]pyrimidin-7-yl) cyclopentane-1,2-diol] | 10 to 15 | 100 to 1000 | 1000 to 10000
13 | CNc1ncnc2c1ccn2[C@@H]1C[C@H](CN(CCCNCCc2cccc(Oc3ccccc3)c2)NC)[C@@H](O)[C@H]1O [367 (271), (1S,2R,3R,5R)-3-((2-methyl-1-(3-((3-phenoxyphenethyl)amino)propyl) hydrazineyl)methyl)-5-(4-(methylamino)-7H-pyrrolo[2,3-d]pyrimidin-7-yl) cyclopentane-1,2-diol] | ≤ 10 | > 1000 | > 10000
14 | CNc1ncnc2c1ccn2[C@@H]1C[C@H](CNCCCNCCc2ccc3ccccc3c2)[C@@H](O)[C@H]1O [368 (272), (1R,2S,3R,5R)-3-(4-(methylamino)-7H-pyrrolo[2,3-a]pyrimidin-7-yl)-5-(((3-((2-(naphthalen-2-yl)ethyl)amino)propyl)amino)methyl) cyclopentane-1,2-diol] | 10 to 15 | > 1000 | > 10000
15 | CNc1ncnc2c1ccn2[C@@H]1C[C@H](CNCCCNCCc2ccc(Oc3ccc(Cl)cc3)c(F)c2)[C@@H](O)[C@H]1O [370 (274), (1S,2R,3R,5R)-3-(((3-((4-(4-chlorophenoxy)-3-fluorophenethyl)amino)propyl)amino)methyl)-5-(4-(methylamino)-7H-pyrrolo[2,3-a]pyrimidin-7-yl) cyclopentane-1,2-diol] | 10 to 15 | > 1000 | 1000 to 10000
16 | CNc1ncnc2c1ccn2[C@@H]1C[C@H](CNCCCNCCc2cccc(Sc3ccccc3)c2)[C@@H](O)[C@H]1O [372 (276), (1R,2S,3R,5R)-3-(4-(methylamino)-7H-pyrrolo[2,3-a]pyrimidin-7-yl)-5-(((3-((3-(phenylthio)phenethyl)amino)propyl)amino)methyl) cyclopentane-1,2-diol] | 10 to 15 | 100 to 1000 | 1000 to 10000
17 | CCN(CCCNCCc1ccc2ccccc2c1)C[C@H]1C[C@@H](n2ccc3c(NC)ncnc32)[C@H](O)[C@@H]1O [375 (279), (1S,2R,3R,5R)-3-((ethyl(3-((2-(naphthalen-2-yl)ethyl)amino)propyl)amino)methyl)-5-(4-(methylamino)-7H-pyrrolo[2,3-d]pyrimidin-7-yl) cyclopentane-1,2-diol] | 10 to 15 | 100 to 1000 | > 10000
